Assay results from US20060063794A1, “Method of attenuating graft rejection” (Fujisawa Pharmaceutical Co., Ltd., priority 2004, published 2006).

System: human kidney transplant recipients
Test: Multi-center, randomized, double-blind trial of FK778/Tacrolimus/steroids: acute rejection and graft survival
Format: in vivo
Experimental: Patients were randomised to a 3-month treatment regimen with high-level FK778/Tacrolimus/corticosteroid (arm 1), low-level FK778/Tacrolimus/corticosteroid (arm 2), or placebo/Tacrolimus/corticosteroid (arm 3). FK778 and placebo were administered in a double-blind manner. Patients in arm 1 received two doses of 600 mg/day and continued on 150 mg/day. Patients in arm 2 received one dose of 600 mg/day and continued on 75 mg/day. Subsequent doses were adjusted to maintain trough levels of FK778 in the range of 100-200 μg/mL (arm 1) and 10-100 μg/mL (arm 2). Trough levels of FK778 were centrally determined. Doses of FK778 were adjusted according to the recommendations of an independent panel.
Treatment of adults of both genders was studied in a multi-center, randomized, double-blind trial. Three groups were studied. Group H was treated with high dose FK778/tarcolimus/steroids; Group L was treated with low dose FK778/tarcolimus/steroids; and Group P was treated with placebo/Tacrolimus/steroids. Tacrolimus was given as an initial dose of 0.2 mg/kg per os divided into two equal doses, one pre-operatively and one post-operatively. Subsequent doses were adjusted to reach target Tacrolimus whole blood trough concentrations of 10-20 ng/mL on Days 0-30, and 5-15 ng/mL on Days 31-84. Methylprednisolone was perioperatively administered at 1000 mg i.v. or less and 125 mg on Day 1. A prednisolone equivalent was given orally at 20 mg from Day 2-14, at 15 mg on Day 15-28, at 10 mg from Day 29-42 and 5 mg from Day 43-84. Oral tablets of FK778/placebo were administered in a double-blind manner.
Patients in group H received loading doses of 600 mg/day on Day 1 and 2 and continued on 150 mg/day. This was the maximum permitted daily dose of FK778. Patients in group L received 600 mg/day only on Day 1 and continued on 75 mg/day. Dose adaptations were to be performed from day 7 onwards. Subsequent doses were adjusted to maintain plasma trough levels of FK778 in the target ranges of 100-200 μg/mL (H) and 10-100 μg/mL (L).
All visits and time points were calculated from the day of reperfusion (Day 0). […] Periods of dialysis dependence and hospitalization were recorded, as were details of medication. In case of a clinically apparent rejection, a renal graft biopsy was taken and classified by the local histopathologist according to the Banff 97 criteria (Racusen et al., Kidney Int. 55: 713-723 (1999)). Type I, II and III acute rejections (AR) were reported. AR was classified as corticosteroid-sensitive or corticosteroid-resistant. An independent histopathologist who was blinded to treatment and local biopsy readings performed the central biopsy review.
The primary efficacy endpoint was the incidence of AR proven by local biopsy over the first 12 weeks. […] For being defined as a patient whose target level was achieved, the average trough level of this patient had to be within the target range at week 2. On a continuous basis safety was assessed by patient and graft survival, adverse event monitoring, routine laboratory evaluations and vital signs. Treatment emergent adverse events were coded according to the MedDRA dictionary (version 5.0).
In this example, all tests were performed one-sided and pair-wise without alpha-adjustment for multiple testing using a 10% significance level. Statistical power was calculated for the analysis of the primary endpoint. A difference of 20% between groups in the incidence of biopsy-proven AR was considered a clinically meaningful difference. A reasonable expectation for the estimated rate of patients experiencing biopsy-proven AR in the Tacrolimus/steroid arm was 35%. Allowing for a dropout rate of 11%, it was estimated that with the outlined statistical methods the sample size of 45 evaluable patients per treatment arm was large enough to achieve a power of ≧80%. Thus, it was planned to enroll 135 patients using a 1:1:1 randomisation. The primary endpoint was analysed using chi-squared tests. […]

[1] = All patients, High level FK778 (group H)
[2] = All patients, Low level FK778 (group L)

C#CCC/C(O)=C(\C#N)C(=O)Nc1ccc(C(F)(F)F)cc1 [FK778, (2Z)-2-cyano-3-hydroxy-N-[4-(trifluromethyl)phenyl]-2-hepten-6-ynamide]
Corticosteroid-resistant AR (%) [1]: (8.2) % | Corticosteroid-resistant AR, number of patients [1]: 4 | Corticosteroid-sensitive AR (%) [1]: (22.4) % | Corticosteroid-sensitive AR, number of patients [1]: 11 | Overall AR proven by central biopsy, number of patients (All patients, High level FK778 (group H), N=49): 13 | Overall AR proven by local biopsy, number of patients (All patients, High level FK778 (group H), N=49, first 12 weeks): 14 | Corticosteroid-resistant AR (%) [2]: (11.1) % | Corticosteroid-resistant AR, number of patients [2]: 6 | Corticosteroid-sensitive AR (%) [2]: (14.8) % | Corticosteroid-sensitive AR, number of patients [2]: 8 | Overall AR proven by central biopsy, number of patients (All patients, Low level FK778 (group L), N=54): 14 | Overall AR proven by local biopsy, number of patients (All patients, Low level FK778 (group L), N=54, first 12 weeks): 14 | Overall AR proven by central biopsy, number of patients (Patients reaching target levels within second week, High level FK778 (subgroup H), N=26): 2 | Overall AR proven by central biopsy, number of patients (Patients reaching target levels within second week, Low level FK778 (subgroup L), N=48): 13 | Kaplan-Meier estimated rate of patients free from centrally determined biopsy proven acute rejection, higher compared with placebo (after 12 weeks, high and low level FK778): 12.1 % percentage points | Graft survival at month 4 (arm 1, high-level FK778/Tacrolimus/corticosteroid, n=49): 89.7% | Graft survival at month 4 (arm 2, low-level FK778/Tacrolimus/corticosteroid, n=54): 88.8% | Difference in incidence of AR by central biopsy review versus placebo (group H vs. P): 12.6% | Difference in incidence of AR proven by local biopsy versus placebo (group H vs. P): 6.2% | Graft survival estimate (Kaplan-Meier method) at Week 16 (group H, high level FK778): 89.7% | Difference in incidence of AR by central biopsy review versus placebo (group L vs. P): 13.2% | Difference in incidence of AR proven by local biopsy versus placebo (group L vs. P): 8.9% | Graft survival estimate (Kaplan-Meier method) at Week 16 (group L, low level FK778): 88.8%
